Measurements published in patent US10780074B2, “Compounds and uses thereof” (Sunovion Pharmaceuticals Inc., priority 2017, dated 2020).
Counter-ions that a name gives are not always drawn.

System: behaviors of compound-treated mice
Experiment: Neuropharmacological Assay (SmartCube)
Assay type: in vivo
Conditions: for minimal effective dose: Mus musculus, ip, 0.25 h, dose having 50% or more total activity in SmartCube, i.p., read-out: MED (minimal effective dose); for AD: ADHD (probability that activity matches class) / AG: analgesic (probability that activity matches class) / AX: anxiolytic (probability that activity matches class) / CE: cognitive enhancer (probability that activity matches class) / DP: anti-depressant (probability that activity matches class) / MS: mood stabilizer (probability that activity matches class) / PS: anti-psychotic (probability that activity matches class) / SD: sedative hypnotic (probability that activity matches class) / UN: uncharacterized CNS activity (probability that activity matches class): i.p. 15 min before behavioral test, most efficacious dose(s) of 3 doses
In short: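 Mice dosed i.p. 15 min before testing, with compound in N-methyl-2-pyrrolidone/PEG/propylene glycol, were video-recorded and algorithmically compared with reference-drug behavioral signatures. This gave class-match probabilities (antidepressant, anxiolytic, etc.) at the most efficacious of 3 doses. MED was defined as the dose with ≥50% total activity, usually tested across 0.3–30 mpk.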

Row | SMILES | minimal effective dose [mg/kg] | AD: ADHD (probability that activity matches class) | AG: analgesic (probability that activity matches class) | AX: anxiolytic (probability that activity matches class) | CE: cognitive enhancer (probability that activity matches class) | DP: anti-depressant (probability that activity matches class) | MS: mood stabilizer (probability that activity matches class) | PS: anti-psychotic (probability that activity matches class) | SD: sedative hypnotic (probability that activity matches class) | UN: uncharacterized CNS activity (probability that activity matches class)
1 | CNC[C@@H]1OCCc2c(-c3ncc[nH]3)cccc21 [Compound 110, (R)-1-(5-(1H-Imidazol-2-yl)isochroman-1-yl)-N-methylmethanamine hydrochloride salt] | 10 to 30 | + (LOQ ≤ + <5%) | + (LOQ ≤ + <5%) | ++ (5% ≤ ++ <25%) | + (LOQ ≤ + <5%) | + (LOQ ≤ + <5%) | + (LOQ ≤ + <5%) | + (LOQ ≤ + <5%) | + (LOQ ≤ + <5%) | + (LOQ ≤ + <5%)
2 | CNC[C@@H]1OCCc2c(-c3ccon3)cccc21 (single isomer, unassigned) [Compound 90, hydrochloride salt] | 10 to 30 | + (LOQ ≤ + <5%) | + (LOQ ≤ + <5%) | ++ (5% ≤ ++ <25%) | + (LOQ ≤ + <5%) | + (LOQ ≤ + <5%) | + (LOQ ≤ + <5%) | + (LOQ ≤ + <5%) | + (LOQ ≤ + <5%) | + (LOQ ≤ + <5%)
3 | NC[C@H]1OCCc2c(-c3cn[nH]c3)cccc21 [Compound 117, (S)-(5-(1H-pyrazol-4-yl)isochroman-1-yl)methanamine hydrochloride salt] | 3 to 10 | + (LOQ ≤ + <5%) | + (LOQ ≤ + <5%) | ++ (5% ≤ ++ <25%) | + (LOQ ≤ + <5%) | ++ (5% ≤ ++ <25%) | + (LOQ ≤ + <5%) | ++ (5% ≤ ++ <25%) | ++ (5% ≤ ++ <25%) | ++ (5% ≤ ++ <25%)
4 | NC[C@H]1OCCc2ccc(-c3cccnc3)cc21 (single isomer, unassigned) [Compound 12, hydrochloride] | 10 to 30 | + (LOQ ≤ + <5%) | + (LOQ ≤ + <5%) | + (LOQ ≤ + <5%) | + (LOQ ≤ + <5%) | ++++ (50% ≤ ++++) | + (LOQ ≤ + <5%) | ++ (5% ≤ ++ <25%) | ++ (5% ≤ ++ <25%) | + (LOQ ≤ + <5%)
5 | NC[C@@H]1OCCc2c(-c3cnccn3)cccc21 (single isomer, unassigned) [Compound 82, hydrochloride salt] | 10 to 30 | + (LOQ ≤ + <5%) | + (LOQ ≤ + <5%) | ++ (5% ≤ ++ <25%) | + (LOQ ≤ + <5%) | + (LOQ ≤ + <5%) | + (LOQ ≤ + <5%) | + (LOQ ≤ + <5%) | + (LOQ ≤ + <5%) | + (LOQ ≤ + <5%)
6 | NC[C@@H]1OCCc2c(-c3cn[nH]c3)cccc21 [Compound 116, (R)-(5-(1H-pyrazol-4-yl)isochroman-1-yl)methanamine hydrochloride salt] | 3 to 10 | + (LOQ ≤ + <5%) | + (LOQ ≤ + <5%) | ++ (5% ≤ ++ <25%) | + (LOQ ≤ + <5%) | ++++ (50% ≤ ++++) | + (LOQ ≤ + <5%) | ++ (5% ≤ ++ <25%) | + (LOQ ≤ + <5%) | ++ (5% ≤ ++ <25%)
7 | NC[C@H]1OCc2c(-c3ccccn3)cccc21 (single isomer, unassigned) [Compound 42] | 10 to 30 | + (LOQ ≤ + <5%) | +++ (25% ≤ +++ <50%) | ++ (5% ≤ ++ <25%) | ++ (5% ≤ ++ <25%) | ++ (5% ≤ ++ <25%) | + (LOQ ≤ + <5%) | + (LOQ ≤ + <5%) | + (LOQ ≤ + <5%) | ++ (5% ≤ ++ <25%)
8 | CNC[C@@H]1OCCc2c(-c3cnoc3)cccc21 (single isomer, unassigned) [Compound 84, hydrochloride salt] | 3 to 10 | ++ (5% ≤ ++ <25%) | + (LOQ ≤ + <5%) | ++ (5% ≤ ++ <25%) | ++ (5% ≤ ++ <25%) | ++ (5% ≤ ++ <25%) | + (LOQ ≤ + <5%) | + (LOQ ≤ + <5%) | + (LOQ ≤ + <5%) | ++ (5% ≤ ++ <25%)
9 | CNC[C@@H]1OCCc2cccc(-c3cccnc3)c21 (single isomer, unassigned) [Compound 1, bis-hydrochloride] | 10 to 30 | + (LOQ ≤ + <5%) | + (LOQ ≤ + <5%) | ++ (5% ≤ ++ <25%) | ++ (5% ≤ ++ <25%) | ++ (5% ≤ ++ <25%) | + (LOQ ≤ + <5%) | ++ (5% ≤ ++ <25%) | + (LOQ ≤ + <5%) | ++ (5% ≤ ++ <25%)
10 | CNC[C@@H]1OCCCc2c(-c3ccncc3)cccc21 (single isomer, unassigned) [Compound 148] | 10 to 30 | + (LOQ ≤ + <5%) | + (LOQ ≤ + <5%) | ++ (5% ≤ ++ <25%) | + (LOQ ≤ + <5%) | + (LOQ ≤ + <5%) | + (LOQ ≤ + <5%) | + (LOQ ≤ + <5%) | + (LOQ ≤ + <5%) | + (LOQ ≤ + <5%)
